Values after ≈ are worked out from the molar mass of the structure shown. Values joined by “and” are separate entries in the source; they are usually repeats but may differ in a detail not shown here. Equal entries are not always repeated.

Series [1] relates to E. faecium ATCC 700221. The experiment in a line: MIC, broth microdilution. The conditions noted are these: Enterococcus faecium, ATCC700221. The series is classed as cell-based.
Series [2] relates to Lactobacillus crispatus HM-103. Nature of the series: MIC against normal gut microbiota. The series is classed as cell-based. The conditions noted are these: HM103.
In series [3] the test system is Lactobacillus gasseri HM-400. The experiment in a line: MIC against normal gut microbiota. The conditions noted are these: HM400. The class given is cell-based.
Series [4] deals with Bacteroides fragilis HM-711. Nature of the series: MIC against normal gut microbiota. The conditions noted are these: HM711. The series is classed as cell-based.
The test system of series [5] is Bacteroides spp. Nature of the series: MIC over Bacteroides species. The class given is cell-based. The conditions noted are these: read-out: MIC against species of Bacteroides.
Series [6] relates to E. faecalis ATCC 51299. The experiment in a line: MIC, broth microdilution. The conditions noted are these: Enterococcus faecalis, ATCC51299. The class given is cell-based.
The test system of series [7] is E. coli BW25113 (wild-type strain). Nature of the series: MIC, broth microdilution. The series is classed as cell-based, Escherichia coli. The conditions noted are these: for MIC: Escherichia coli, BW25113.
The subject of series [8] is E. coli JW55031 (TolC Mutant). Nature of the series: MIC, broth microdilution. The class given is cell-based. The conditions noted are these: Escherichia coli.
The test system of series [9] is human colorectal cells (Caco-2). The experiment in a line: In vitro cytotoxicity, MTS assay. The class given is cell-based. The conditions noted are these: 2 hours incubation with compound.
For series [10], the system named is Caco-2 bilayers. Nature of the series: Caco-2 bidirectional permeability assay. The class given is in vitro ADME, human.
Series [11] concerns C. difficile NR-13432 (isolate 6). The experiment in a line: MIC, broth microdilution, clinical isolate. The conditions noted are these: Clostridioides difficile. The series is classed as cell-based.
Series [12] has as its system VRE clinical isolates. The experiment in a line: MIC range over VRE clinical isolates. The series is classed as cell-based, vancomycin-resistant enterococci. The conditions noted are these: Enterococcus, read-out: MICs ranging over VRE clinical isolates.
The subject of series [13] is Bacteroides fragilis HM-709. The experiment in a line: MIC against normal gut microbiota. The conditions noted are these: HM709. The series is classed as cell-based.
Series [14] concerns Lactobacillus strains. The experiment in a line: MIC over Lactobacillus strains. The class given is cell-based, Lactobacillus spp. The conditions noted are these: read-out: MIC against Lactobacillus strains.
Series [15] deals with C. difficile NR-13435 (isolate 9). Nature of the series: MIC, broth microdilution, clinical isolate. The series is classed as cell-based. The conditions noted are these: Clostridioides difficile.
Series [16] deals with Lactobacillus crispatus HM-371. Nature of the series: MIC against normal gut microbiota. The series is classed as cell-based. The conditions noted are these: HM371.
Series [17] concerns C. difficile ATCC 43255. Nature of the series: MIC, broth microdilution, clinical isolate. The conditions noted are these: Clostridioides difficile, ATCC43255. The class given is cell-based.
Series [18] concerns C. difficile ATCC 43255. The experiment in a line: Frequency of spontaneous mutation. The conditions noted are these: for isolation of resistant mutants: high inoculum.
The test system of series [19] is C. difficile NR-32883 (P2). Nature of the series: MIC, broth microdilution, clinical isolate. The class given is cell-based. The conditions noted are these: Clostridioides difficile.
The test system of series [20] is C. difficile NR-32891 (P13). The experiment in a line: MIC, broth microdilution, clinical isolate. The class given is cell-based. The conditions noted are these: Clostridioides difficile.
Series [21] has as its system C. difficile NR-32895 (P19). The experiment in a line: MIC, broth microdilution, clinical isolate. The conditions noted are these: Clostridioides difficile. The class given is cell-based.
The test system of series [22] is C. difficile infection (CDI). The conditions noted are these: cited from earlier work.
For series [23] the following is noted: cited from earlier work.
Series [24] relates to C. difficile ATCC BAA 1801. The experiment in a line: MIC, broth microdilution, initial screening. The class given is cell-based, Clostridioides difficile. The conditions noted are these: Clostridioides difficile, BAA1801, 48 h.
The subject of series [25] is C. difficile NR-32904 (P30). The experiment in a line: MIC, broth microdilution, clinical isolate. The series is classed as cell-based. The conditions noted are these: Clostridioides difficile.
Setting [26] is: 15 × MIC, inoculum ~10^9 CFU/mL.
Where [27] appears, read: 20 × MIC, inoculum ~10^9 CFU/mL.

As for `O=C(Nc1nnc(-c2cc(Cl)cc(Cl)c2)o1)c1ccc(SC(F)(F)F)cc1` [HSGN-218, N-(5-(3,5-Dichlorophenyl)-1,3,4-oxadiazol-2-yl)-4-((trifluoromethyl)thio)benzamide], the MIC in series [1] is 0.125 µg/mL (≈ 0.288 µM); in series [2], 16 µg/mL (≈ 36.8 µM); in series [3], 16 µg/mL (≈ 36.8 µM); in [4] it was 2 µg/mL (≈ 4.61 µM); in [5], 1 µg/mL to 2 µg/mL and 2.3 µM to 4.6 µM; in series [6], 0.06 µg/mL (≈ 0.138 µM). Moreover, the MIC in [7] was greater than 16 µg/mL; in [8] it was 4 µg/mL (≈ 9.21 µM); in [11], 0.03 µg/mL (≈ 0.0691 µM); in series [12], 0.06 µg/mL to 0.125 µg/mL and 0.14 µM to 0.29 µM; in series [13] it was 1 µg/mL (≈ 2.3 µM); in series [14], 16 µg/mL (≈ 36.8 µM). Further, the MIC came out at 0.003 µg/mL (≈ 0.00691 µM) in series [15], 16 µg/mL (≈ 36.8 µM) in [16] and 0.015 µg/mL (≈ 0.0345 µM) in series [17]. Further, the “activity against E. coli BW25113 in words” value in series [7] (wild-type strain) was “inactive”. For the same compound, the “concentration highly tolerable to Caco-2 cells” value in [9] is “higher than 64 μg/mL”. Besides, the “Notes (permeability class)” value in series [10] was “Low Permeability”. In addition, the “isolation of resistant mutants” value in [18] (15 × MIC and 20 × MIC) was “No resistant mutants were isolated”. The Frequency of mutation in [18] (setting [26]) and in series [18] (setting [27]) was <1.1× 10^−9 in each case.

For the compound `Cc1ncc([N+](=O)[O-])n1CCO` [Metronidazole], the MIC is greater than 64 µg/mL in [1]; > 64 µg/mL and > 374 µM in series [2]; 0.125 µg/mL (≈ 0.73 µM) in [19]; greater than 64 µg/mL in series [3]; 0.125 µg/mL (≈ 0.73 µM) in series [20]; no more than 1 µg/mL in [4]. Moreover, the MIC was 0.25 µg/mL (≈ 1.46 µM) in [21]; greater than 64 µg/mL in [6]; 0.25 µg/mL (≈ 1.46 µM) in series [24] (C. difficile ATCC BAA 1801, anaerobic, 48 hours); 0.25 µg/mL (≈ 1.46 µM) in series [11]; 2 µg/mL (≈ 11.7 µM) in series [13]; 0.125 µg/mL (≈ 0.73 µM) in series [15]. The results for the MIC in series [16], in [25] and in series [17] were greater than 64 µg/mL, 0.25 µg/mL (≈ 1.46 µM) and 0.25 µg/mL (≈ 1.46 µM), respectively. Moreover, the treatment failure in series [22] is 22%. The “bioavailable (absorption from the intestinal tract)” value in series [23] is given as 100%.

Take `CN[C@H](CC(C)C)C(=O)N[C@H]1C(=O)N[C@@H](CC(N)=O)C(=O)N[C@H]2C(=O)N[C@H]3C(=O)N[C@H](C(=O)N[C@H](C(=O)O)c4cc(O)cc(O)c4-c4cc3ccc4O)[C@H](O)c3ccc(c(Cl)c3)Oc3cc2cc(c3O[C@@H]2O[C@H](CO)[C@@H](O)[C@H](O)[C@H]2O[C@H]2C[C@](C)(N)[C@H](O)[C@H](C)O2)Oc2ccc(cc2Cl)[C@H]1O` [Vancomycin]: the MIC is 32 µg/mL (≈ 22.1 µM) in series [1]; 2 µg/mL (≈ 1.38 µM) in series [2]; 0.5 µg/mL (≈ 0.345 µM) in [19]; ≤ 1 µg/mL and ≤ 0.7 µM in series [3]; 0.5 µg/mL (≈ 0.345 µM) in series [20]; 64 µg/mL (≈ 44.2 µM) in series [4]. The MIC was 1 µg/mL (≈ 0.69 µM) in series [21]; 32 µg/mL to 64 µg/mL and 22.1 µM to 44.2 µM in [5]; greater than 64 µg/mL in [6]; greater than 64 µg/mL in [7]; greater than 64 µg/mL in series [8]; 1 µg/mL (≈ 0.69 µM) in [24]. Besides, the MIC was 0.25 µg/mL (≈ 0.173 µM) in [11]; 32 µg/mL (≈ 22.1 µM) in series [13]; 1 µg/mL to 2 µg/mL and 0.7 µM to 1.4 µM in series [14]; 1 µg/mL (≈ 0.69 µM) in series [15]; 2 µg/mL (≈ 1.38 µM) in series [16]; 1 µg/mL (≈ 0.69 µM) in series [25]. For the same compound, the MIC in [17] was determined as 1 µg/mL (≈ 0.69 µM). For the same compound, in series [22], the treatment failure is listed as 14%. Further, the “Frequency of mutation” value is recorded as < 1.1× 10^−9 in series [18] (15 × MIC and 20 × MIC); <1.1× 10^−9 in series [18] (setting [26]); <1.1× 10^−9 in series [18] (setting [27]). Further, in series [18] (15 × MIC and 20 × MIC), the “isolation of resistant mutants” value was “no resistant mutants were isolated”.
